How the values were obtained:
Spodoptera litura = test: Pesticidal effect on Spodoptera litura by bait crop immersion treatment; assay type: in vivo; details: 48 h, fourth-instar larvae, 2 days after, 25° C.
Procedure: Mortality (%)=(dead larvae number/tested larvae number)×100 Equation [1]
Test Example 3: Pesticidal Effect on Spodoptera litura by Bait Crop Immersion Treatment
To 10 mg of the compound (13) or (15) was added 0.2 ml of acetone containing 5% of Tween 20 (product name: SOLGEN (registered trademark) TW-20, manufactured by Dai-ichi Kogyo Seiyaku Co., Ltd.) to cause dissolution, and the solution was diluted with a 5,000-fold diluted solution of a spreading agent (product name: Dine (registered trademark), manufactured by Sumitomo Chemical Garden Products Inc.) to prepare a diluted liquid of the compound. A commercially available pyriproxyfen emulsifiable concentrate manufactured by Sumitomo Chemical Co., Ltd. under the product name of Lano (registered trademark) emulsifiable concentrate was diluted with a 5,000-fold diluted solution of a spreading agent (product name: Dine (registered trademark), manufactured by Sumitomo Chemical Garden Products Inc.) to prepare a diluted liquid of pyriproxyfen. These diluted liquids were mixed to prepare a test solution of prescribed concentration. […] The cup was stored in a constant temperature breeding room (25° C.), and the number of dead larvae was counted 2 days after, and the mortality was determined by the above equation [1].

Plutella xylostella = test: Pesticidal effect on Plutella xylostella by bait crop immersion treatment; assay type: in vivo; details: 48 h, 0.8 ppm alone (Comparative Example 4-2), third-instar larvae, 2 days after, 25° C.
Procedure: Test Example 1: Pesticidal Effect on Plutella xylostella by Bait Crop Immersion Treatment
To 10 mg of the compound (1) was added 0.2 ml of acetone containing 5% of Tween 20 (product name: SOLGEN (registered trademark) TW-20, manufactured by Dai-ichi Kogyo Seiyaku Co., Ltd.) to cause dissolution, and the solution was diluted with a 5,000-fold diluted solution of a spreading agent (product name: Dine (registered trademark), manufactured by Sumitomo Chemical Garden Products Inc.) to prepare a diluted liquid of the compound (1). […] The cup was stored in a constant temperature breeding room (25° C.), and the number of dead larvae was counted 2 days after, and the mortality was determined by the following equation [1]. […]
To 10 mg of the compound (13) was added 0.2 ml of acetone containing 5% of Tween 20 (product name: SOLGEN (registered trademark) TW-20, manufactured by Dai-ichi Kogyo Seiyaku Co., Ltd.) to cause dissolution, and the solution was diluted with a 5,000-fold diluted solution of a spreading agent (product name: Dine (registered trademark), manufactured by Sumitomo Chemical Garden Products Inc.) to prepare a diluted liquid of the compound (13). […] The cup was stored in a constant temperature breeding room (25° C.), and the number of dead larvae was counted 2 days after, and the mortality was determined by the above equation [1].

CC(COc1ccc(Oc2ccccc2)cc1)Oc1ccccn1 (racemic) [pyriproxyfen, 4-phenoxyphenyl (RS)-2-(2-pyridyloxy)propyl ether]
mortality at 0.2 ppm (Spodoptera litura; 0.2 ppm alone (Comparative Examples 5-2, 7-2)): 30% | mortality at 3.13 ppm (Spodoptera litura; 3.13 ppm alone (Comparative Example 6-2)): 50% | mortality at 0.8 ppm (Plutella xylostella): 40%

— patent US20120208853A1, “PEST CONTROL COMPOSITION” (priority 2009, published 2012)
